Source: patent US10766879B2, “Pyrimidine derivatives as kinase inhibitors and their therapeutical applications” (NantBioScience, Inc., priority 2015, dated 2020)

Key:
[1] = target: T1, Abl kinase (Homo sapiens, UniProt P00519); assay: KinaseProfiler kinase inhibition assay, Abl; type: biochemical; details: 1 μM compound
T1 construct: purchased Millipore (KinaseProfiler Service)

[2] = target: T2, Alk kinase (Homo sapiens, UniProt Q9UM73); assay: KinaseProfiler kinase inhibition assay, Alk; type: biochemical; details: 1 μM compound
T2 construct: purchased Millipore (KinaseProfiler Service)

[3] = target: T3, c-Src kinase (Homo sapiens, UniProt P12931); assay: KinaseProfiler kinase inhibition assay, c-Src; type: biochemical; details: 1 μM compound; read-out: % Inhibition @1 μM cSrc
T3 construct: purchased Millipore (KinaseProfiler Service)

[4] = target: T4, FGFR1 kinase (Homo sapiens, UniProt P11362); assay: KinaseProfiler kinase inhibition assay, FGFR1; type: biochemical; details: 1 μM compound
T4 construct: purchased Millipore (KinaseProfiler Service)

[5] = target: T5, KDR kinase (Homo sapiens, UniProt P35968); assay: KinaseProfiler kinase inhibition assay, KDR; type: biochemical; details: 1 μM compound
T5 construct: purchased Millipore (KinaseProfiler Service)

[6] = target: T6, Ret kinase (Homo sapiens, UniProt P07949); assay: KinaseProfiler kinase inhibition assay, Ret; type: biochemical; details: 1 μM compound
T6 construct: purchased Millipore (KinaseProfiler Service)

[7] = target: T7, Tie2 (Homo sapiens, UniProt Q02763); assay: KinaseProfiler kinase inhibition assay, Tie2; type: biochemical; details: 1 μM compound
T7 construct: purchased Millipore (KinaseProfiler Service)

[8] = test system: MDA-MB134; assay: CellTiterblue viability, 72 hr, MDA-MB134; type: cell-based; details: MDA-MB134 cells
Method: (§1) A number of studies were performed to analyze the consequences of tyrosine kinase inhibition in cell lines. To do this, 1000 cells are seeded in 27 μl/well in 384-well microplates, which are then placed in a humidified CO2 incubator at 37° C. overnight. The next day, 3 μl/well of 10× concentrated drug is added and the plates are returned to the incubator for 72 hr. After 72 hr incubation, plates are removed and […] CellTiterblue (Promega) viability reagent is added. Plates are returned to the incubator for 3 hr, after which it is fluorescence measurements are read on the Victor X3 plate reader (Perkin Elmer). Data are analyzed using Excel (Microsoft), and GI50 values are determined using Prism (Graphpad).

[9] = test system: AN3_CA; assay: CellTiterblue viability, 72 hr, AN3_CA; type: cell-based; details: Homo sapiens, AN3-CA, AN3_CA cells
Method: as §1

[10] = test system: Kato III; assay: CellTiterblue viability, 72 hr, Kato III; type: cell-based; details: Homo sapiens, Kato III cells
Method: as §1

[11] = test system: KG1a; assay: CellTiterblue viability, 72 hr, KG1a; type: cell-based; details: Homo sapiens, KG-1a, KG1a cells
Method: as §1

[12] = test system: RT112; assay: CellTiterblue viability, 72 hr, RT112; type: cell-based; details: Homo sapiens, RT-112, RT112 cells
Method: as §1

T1 sequence (P00519 whole entry): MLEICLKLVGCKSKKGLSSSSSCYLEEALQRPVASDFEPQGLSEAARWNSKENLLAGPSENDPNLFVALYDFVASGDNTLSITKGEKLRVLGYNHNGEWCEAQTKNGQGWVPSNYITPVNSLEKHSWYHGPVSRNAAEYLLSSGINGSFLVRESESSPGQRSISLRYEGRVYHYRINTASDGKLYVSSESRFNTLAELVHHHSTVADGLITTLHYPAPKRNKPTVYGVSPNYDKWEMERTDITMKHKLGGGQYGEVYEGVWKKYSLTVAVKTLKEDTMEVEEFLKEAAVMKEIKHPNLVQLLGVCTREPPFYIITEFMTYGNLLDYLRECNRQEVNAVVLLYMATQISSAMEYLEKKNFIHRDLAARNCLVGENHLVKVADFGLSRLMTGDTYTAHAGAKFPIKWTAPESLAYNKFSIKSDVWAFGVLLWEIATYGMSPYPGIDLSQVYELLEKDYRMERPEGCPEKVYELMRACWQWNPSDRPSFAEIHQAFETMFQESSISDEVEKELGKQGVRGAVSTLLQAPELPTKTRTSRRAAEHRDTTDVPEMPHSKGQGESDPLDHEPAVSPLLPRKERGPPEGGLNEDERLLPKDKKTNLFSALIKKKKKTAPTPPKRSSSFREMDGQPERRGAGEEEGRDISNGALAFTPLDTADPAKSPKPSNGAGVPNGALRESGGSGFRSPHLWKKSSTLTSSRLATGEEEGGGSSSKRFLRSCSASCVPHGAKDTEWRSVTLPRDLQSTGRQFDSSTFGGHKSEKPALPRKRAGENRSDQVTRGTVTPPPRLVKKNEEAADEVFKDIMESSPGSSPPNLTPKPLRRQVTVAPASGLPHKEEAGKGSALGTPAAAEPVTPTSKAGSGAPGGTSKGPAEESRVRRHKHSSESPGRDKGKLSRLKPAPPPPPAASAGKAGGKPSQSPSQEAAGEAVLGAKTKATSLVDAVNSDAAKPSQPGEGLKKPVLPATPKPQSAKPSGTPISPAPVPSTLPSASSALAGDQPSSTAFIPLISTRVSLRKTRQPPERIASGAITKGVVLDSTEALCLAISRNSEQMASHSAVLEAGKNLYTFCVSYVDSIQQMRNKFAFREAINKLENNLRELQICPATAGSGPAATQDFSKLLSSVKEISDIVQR
T3 sequence (P12931 whole entry): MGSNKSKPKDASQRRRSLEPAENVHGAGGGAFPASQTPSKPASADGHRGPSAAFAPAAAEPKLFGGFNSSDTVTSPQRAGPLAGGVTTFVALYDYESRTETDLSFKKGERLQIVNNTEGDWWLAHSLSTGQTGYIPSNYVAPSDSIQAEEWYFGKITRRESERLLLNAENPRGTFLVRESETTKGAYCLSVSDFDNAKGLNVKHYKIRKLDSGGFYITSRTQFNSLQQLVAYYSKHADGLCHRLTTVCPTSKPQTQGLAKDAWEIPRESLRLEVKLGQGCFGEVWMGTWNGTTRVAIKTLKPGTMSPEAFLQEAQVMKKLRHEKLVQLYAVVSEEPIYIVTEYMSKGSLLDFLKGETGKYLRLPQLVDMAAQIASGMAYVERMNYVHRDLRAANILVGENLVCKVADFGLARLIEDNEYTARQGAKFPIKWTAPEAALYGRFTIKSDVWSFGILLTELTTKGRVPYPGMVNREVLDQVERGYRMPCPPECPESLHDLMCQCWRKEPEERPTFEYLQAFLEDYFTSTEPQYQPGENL
T2 sequence (Q9UM73 19-1620): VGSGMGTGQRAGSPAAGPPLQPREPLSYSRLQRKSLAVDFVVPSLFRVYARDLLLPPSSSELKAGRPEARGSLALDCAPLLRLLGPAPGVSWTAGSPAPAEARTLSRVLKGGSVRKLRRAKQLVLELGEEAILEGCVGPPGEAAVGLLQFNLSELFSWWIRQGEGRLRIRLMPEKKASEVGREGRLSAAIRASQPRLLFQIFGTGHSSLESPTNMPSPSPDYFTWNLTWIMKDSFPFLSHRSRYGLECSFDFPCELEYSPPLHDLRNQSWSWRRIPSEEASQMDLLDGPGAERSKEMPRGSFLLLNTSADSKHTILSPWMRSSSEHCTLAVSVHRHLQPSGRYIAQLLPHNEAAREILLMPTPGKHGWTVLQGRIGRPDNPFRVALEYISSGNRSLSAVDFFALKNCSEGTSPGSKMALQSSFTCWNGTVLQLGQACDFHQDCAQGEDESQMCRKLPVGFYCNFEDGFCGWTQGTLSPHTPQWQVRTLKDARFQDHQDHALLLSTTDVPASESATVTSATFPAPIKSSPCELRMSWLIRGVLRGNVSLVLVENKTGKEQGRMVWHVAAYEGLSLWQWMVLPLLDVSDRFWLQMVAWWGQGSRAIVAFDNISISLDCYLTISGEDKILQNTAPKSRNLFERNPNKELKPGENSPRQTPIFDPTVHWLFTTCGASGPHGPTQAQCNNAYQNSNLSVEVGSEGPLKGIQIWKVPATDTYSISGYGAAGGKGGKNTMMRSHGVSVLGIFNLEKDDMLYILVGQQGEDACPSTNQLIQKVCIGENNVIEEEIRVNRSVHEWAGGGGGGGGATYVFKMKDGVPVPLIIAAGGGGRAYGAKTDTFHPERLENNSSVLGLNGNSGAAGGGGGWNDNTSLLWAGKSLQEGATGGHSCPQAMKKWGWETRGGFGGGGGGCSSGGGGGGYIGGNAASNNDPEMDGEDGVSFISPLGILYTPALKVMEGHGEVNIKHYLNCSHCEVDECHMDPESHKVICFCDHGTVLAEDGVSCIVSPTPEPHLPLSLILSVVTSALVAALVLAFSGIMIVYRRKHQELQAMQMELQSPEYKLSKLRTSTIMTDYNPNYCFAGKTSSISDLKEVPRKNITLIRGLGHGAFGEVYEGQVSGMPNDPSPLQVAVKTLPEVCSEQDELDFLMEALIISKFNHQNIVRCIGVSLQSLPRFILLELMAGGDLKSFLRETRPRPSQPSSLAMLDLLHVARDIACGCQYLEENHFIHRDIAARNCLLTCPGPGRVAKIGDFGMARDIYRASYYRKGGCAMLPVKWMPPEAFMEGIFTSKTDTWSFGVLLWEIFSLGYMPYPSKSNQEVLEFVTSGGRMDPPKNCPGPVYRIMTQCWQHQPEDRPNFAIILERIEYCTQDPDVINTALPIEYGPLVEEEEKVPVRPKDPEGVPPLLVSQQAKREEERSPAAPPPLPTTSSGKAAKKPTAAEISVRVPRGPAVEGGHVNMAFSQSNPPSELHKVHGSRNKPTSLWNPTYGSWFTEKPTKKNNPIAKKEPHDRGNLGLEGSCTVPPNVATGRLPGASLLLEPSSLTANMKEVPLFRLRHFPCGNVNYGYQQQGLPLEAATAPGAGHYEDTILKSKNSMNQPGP
T6 sequence (P07949 29-1114): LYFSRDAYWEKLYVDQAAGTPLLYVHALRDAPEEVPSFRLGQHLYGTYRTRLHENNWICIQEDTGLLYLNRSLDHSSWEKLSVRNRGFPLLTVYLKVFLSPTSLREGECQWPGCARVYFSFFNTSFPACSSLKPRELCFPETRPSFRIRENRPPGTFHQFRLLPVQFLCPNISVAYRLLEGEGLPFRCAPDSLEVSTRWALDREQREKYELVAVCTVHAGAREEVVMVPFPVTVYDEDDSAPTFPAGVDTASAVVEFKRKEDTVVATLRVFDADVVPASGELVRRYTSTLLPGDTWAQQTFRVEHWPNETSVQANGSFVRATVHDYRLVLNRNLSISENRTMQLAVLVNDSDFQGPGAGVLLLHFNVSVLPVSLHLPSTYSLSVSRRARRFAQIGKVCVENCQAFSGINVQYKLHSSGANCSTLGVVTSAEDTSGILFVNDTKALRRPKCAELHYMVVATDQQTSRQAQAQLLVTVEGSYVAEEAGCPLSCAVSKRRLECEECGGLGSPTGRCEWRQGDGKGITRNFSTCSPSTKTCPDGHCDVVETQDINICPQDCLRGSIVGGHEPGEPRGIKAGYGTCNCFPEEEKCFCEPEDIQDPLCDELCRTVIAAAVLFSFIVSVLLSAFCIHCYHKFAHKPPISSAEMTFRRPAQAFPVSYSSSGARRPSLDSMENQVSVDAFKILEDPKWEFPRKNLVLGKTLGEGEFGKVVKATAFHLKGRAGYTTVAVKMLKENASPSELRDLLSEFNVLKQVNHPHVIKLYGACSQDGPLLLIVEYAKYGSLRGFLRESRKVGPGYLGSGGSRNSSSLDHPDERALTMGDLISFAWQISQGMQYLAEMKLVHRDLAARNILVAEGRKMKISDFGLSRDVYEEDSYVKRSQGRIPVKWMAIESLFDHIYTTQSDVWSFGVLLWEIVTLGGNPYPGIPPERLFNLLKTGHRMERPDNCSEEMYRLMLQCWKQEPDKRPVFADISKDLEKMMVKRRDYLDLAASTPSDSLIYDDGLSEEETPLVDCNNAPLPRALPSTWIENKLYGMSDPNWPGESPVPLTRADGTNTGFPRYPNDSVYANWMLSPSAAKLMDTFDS

Row | Compound | inhibition at 1 µM [1] [%] | inhibition at 1 µM [2] [%] | inhibition at 1 µM [3] [%] | inhibition at 1 µM [4] [%] | inhibition at 1 µM [5] [%] | inhibition at 1 µM [6] [%] | inhibition at 1 µM [7] [%] | GI50 [8] [nM] | GI50 [9] [nM] | GI50 [10] [nM] | GI50 [11] [nM] | GI50 [12] [nM]
1 | Cc1cc2c(F)c(Oc3ncnc(Nc4ccc(N5CCN(C)CC5)cc4)c3Cl)ccc2[nH]1 [Compound 35, 5-chloro-6-((4-fluoro-2-methyl-1H-indol-5-yl)oxy)-N-(4-(4-methylpiperazin-1-yl)phenyl)pyrimidin-4-amine] | -15 | -43 | 2 | 96 | 20 | -22 | 19 | > 500 | > 500 | > 500 | > 500 | > 500
2 | Cc1cc2c(F)c(Oc3ncnc(Nc4ccc(N5CCN(C)CC5)cc4)c3C)ccc2[nH]1 [Compound 40] | 2 | -23 | -2 | 91 | 12 | -46 | 13 | 430 | > 500 | > 500 | > 500 | > 500
3 | Cc1cc2c(F)c(Oc3ncnc(Nc4ccc(N5CCN(C)CC5)cn4)c3C)ccc2[nH]1 [Compound 41] | 2 | -41 | 8 | 41 | 5 | -35 | 12 | 241 | > 500 | > 500 | > 500 | > 500
4 | COc1c(Nc2ccc(N3CCN(C)CC3)cc2)ncnc1Oc1ccc2[nH]c(C)cc2c1F [Compound 43] | -10 | -32 | -4 | 48 | -7 | -28 | 21 | > 500 | > 500 | > 500 | > 500 | > 500
5 | COc1c(Nc2ccc(N3CCN(C)CC3)cn2)ncnc1Oc1ccc2[nH]c(C)cc2c1F [Compound 44] | -6 | -18 | -11 | 16 | -1 | -12 | 11 | > 500 | > 500 | > 500 | > 500 | > 500
6 | Cc1cc2c(F)c(Oc3ncnc(Nc4ccc(N5CCN(C)CC5)cc4)c3N)ccc2[nH]1 [Compound 46] | -13 | -34 | 12 | 54 | 5 | -43 | 14 | 254 | > 500 | > 500 | > 500 | > 500
7 | Cc1cc2c(F)c(Oc3ncnc(Nc4ccc(N5CCN(C)CC5)cn4)c3N)ccc2[nH]1 [Compound 47] | -6 | -31 | -6 | 34 | 1 | -30 | 11 | > 500 | > 500 | > 500 | > 500 | > 500
8 | CC(=O)N1CCN(c2ccc(Nc3cc(Oc4cc(F)c5[nH]c(C)cc5c4F)ncn3)cc2)CC1 [Compound 50] | 36 | 63 | 58 | 89 | 97 | 36 | 48 | – | > 500 | 348 | – | –
9 | Cc1cc2c(F)c(Oc3cc(Nc4cc(-c5ccccc5)[nH]n4)ncn3)ccc2[nH]1 [Example 4] | 23 | 53 | 36 | 59 | 98 | 27 | 30 | – | > 500 | – | – | –
10 | CC(=O)Nc1ccc(Nc2cc(Oc3ccc4[nH]c(C)cc4c3F)ncn2)cc1 [Example 7] | 8 | 61 | 14 | 96 | 98 | -16 | 4 | – | > 500 | > 500 | – | –
11 | Cc1cc2c(F)c(Oc3cc(Nc4cccc(N5CCOCC5)c4)ncn3)ccc2[nH]1 [Example 8] | 11 | 60 | 15 | 97 | 98 | 22 | 2 | – | > 500 | > 500 | – | –
12 | Cc1cc2c(F)c(Oc3cc(Nc4ccc(N5CCOCC5)cc4)ncn3)ccc2[nH]1 [Example 9] | 21 | 70 | 20 | 75 | 96 | 35 | 24 | – | > 500 | > 500 | – | –
13 | CNC(=O)c1ccc(Nc2cc(Oc3ccc4[nH]c(C)cc4c3F)ncn2)cc1 [Example 12] | 18 | 60 | 30 | 89 | 98 | 21 | 20 | – | > 500 | > 500 | – | –
14 | Cc1cc2c(F)c(Oc3cc(Nc4cccc(N5CCN(C)CC5)c4)ncn3)ccc2[nH]1 [Example 13] | 41 | 60 | 32 | 98 | 98 | 61 | 70 | – | > 500 | 170 | – | –
15 | Cc1cc2c(F)c(Oc3cc(Nc4ccccn4)ncn3)ccc2[nH]1 [Example 18] | 45 | 15 | 21 | 87 | 92 | 68 | 48 | – | > 500 | – | – | –

Second part, led by results:

Row | inhibition at 1 µM [1] [%] | inhibition at 1 µM [2] [%] | inhibition at 1 µM [3] [%] | inhibition at 1 µM [4] [%] | inhibition at 1 µM [5] [%] | inhibition at 1 µM [6] [%] | inhibition at 1 µM [7] [%] | GI50 [8] [nM] | Compound | GI50 [9] [nM] | GI50 [10] [nM] | GI50 [11] [nM] | GI50 [12] [nM]
16 | 18 | -5 | 8 | 59 | 89 | 48 | 13 | – | CCOC(=O)c1cc(Nc2cc(Oc3ccc4[nH]c(C)cc4c3F)ncn2)n[nH]1 [Example 19] | > 500 | – | – | –
17 | 0 | 38 | 11 | 97 | 96 | -12 | -6 | – | Cc1cc2c(F)c(Oc3ncnc(Nc4ccc(N5CCN(C)CC5)cc4)c3F)ccc2[nH]1 [Example 24] | > 500 | 386 | – | –
18 | 7 | 68 | 16 | 46 | 96 | -17 | -11 | – | CC(=O)N1CCN(c2ccc(Nc3ncnc(Oc4ccc5[nH]c(C)cc5c4F)c3F)cc2)CC1 [Example 26] | > 500 | > 500 | – | –
19 | 4 | 35 | 11 | 85 | 79 | -46 | -2 | – | Cc1cc2c(F)c(Oc3ncnc(Nc4ccc(N5CCN(C)CC5)cn4)c3F)ccc2[nH]1 [Example 27] | > 500 | > 500 | – | –
20 | 12 | 62 | 17 | 96 | 97 | -15 | -7 | – | Cc1cc2c(F)c(Oc3ncnc(Nc4ccc(N5CCNCC5)cc4)c3F)ccc2[nH]1 [Example 28] | > 500 | > 500 | – | –
21 | -7 | -48 | 15 | 92 | 70 | -29 | 33 | > 500 | CCN1CCN(c2ccc(Nc3ncnc(Oc4ccc5[nH]c(C)cc5c4F)c3F)nc2)CC1 [Example 29, N-(5-(4-ethylpiperazin-1-yl)pyridin-2-yl)-5-fluoro-6-((4-fluoro-2-methyl-1H-indol-5-yl)oxy)pyrimidin-4-amine] | > 500 | > 500 | – | –
